The values that follow come from patent publication US7888040B2, “Detection of methamphetamine group drugs” (priority 2004, dated 2011).

A value given as a limit tells only on which side of the number the result lay.

The test system of test [1] is monoclonal anti-methamphetamine antibody. The test is described as follows: Competitive inhibition ELISA (CELIA) on BSA-pseudoephedrine coated wells. Type of test: binding, mouse. The conditions noted are these: for Detection by the competitive ELISA (in words): summary of Table 1. On the procedure:
The conjugate was evaluated using ELISA. 96-well microtitre plates (Costar) were coated with BSA-pseudoephedrine (5 :g/ml in 0.05 M sodium carbonate/bicarbonate buffer, pH 9.6, 100 :l/well) overnight at room temperature. […] Two fold dilutions of monoclonal anti-methamphetamine antibody (East coast Biological, USA) in wash buffer containing 10 mg/ml BSA (assay buffer) were added to the wells (100 :l/well) and the plate incubated at room temperature for 30 minutes. The wells were washed 3 times with wash buffer and horseradish peroxidase-labelled goat anti-mouse IgG antibody (product number A-4416, Sigma Co., Poole, England) was added to the wells (1/2000 dilution in assay buffer, 100 :l/well) and incubation continued for a further 30 minutes. […] After 30 minutes incubation, colour development was stopped by the addition of 1 M sulphuric acid (100 :l/well). Colour intensity was measured at 450 nm.
Competitive ELISA was then set up to evaluate the cross-reactivity of various drugs with methamphetamine. […] The designer ecstasy drugs MDMA and MBDB were well detected by this assay.

Test [2] deals with gold-labelled mouse anti-methamphetamine antibody. The test is described as follows: Lateral flow immunochromatography test for methamphetamine/ecstasy in spiked oral fluid. The conditions noted are these: for Lateral flow test result (in words): Table 2, at the concentrations tested; for Lateral flow test result: cut off set at ≧15 ng/ml (+)-methamphetamine.
The mark [3] stands for this setting: compound at 15 ng/ml in spiked saliva, Cozart Rapiscan reader.
Where [4] appears, read: compound at 10,000 ng/ml, read off (+)-methamphetamine or ecstasy standard curve.
Where [5] appears, read: compound at 10,000 ng/ml in spiked saliva.

For `CCC(Cc1ccc2c(c1)OCO2)NC` (racemic) [MBDB, (+/−)-N-methyl-1-(3,4-methylenedioxyphenyl)-2-butanamine], the “% Cross-reactivity” value in test [1] (compound at 25 ng/ml) turned out to be 75.04%; in test [1] (compound at 100 ng/ml) it was 66.43%; in test [1] (compound at 500 ng/ml), 87.78%. Besides, the entries for the “Concentration determined by ELISA” value in test [1] (compound at 25 ng/ml), in test [1] (compound at 100 ng/ml) and in test [1] (compound at 500 ng/ml) were 18.76 ng/mL, 66.43 ng/mL and 438.88 ng/mL, respectively. Also, in test [1], the “Detection by the competitive ELISA (in words)” value is “well detected”. For the same compound, the “Lateral flow test result (in words)” value in test [2] is given as “picked up”. Further, in test [2] (setting [3]), the “Lateral flow test result” value was “positive”.
`CC(N)Cc1ccccc1` (single isomer, unassigned; (+)) [(+)-amphetamine]: the “% Cross-reactivity” value is recorded as 0.379% in test [1] (compound at 10,000 ng/ml) and below 0.4% in test [1] (compound at 10,000 ng/ml, listed as amphetamine). Further, in test [1] (setting [4]), the “Concentration determined by ELISA” value was found to be 37.97 ng/mL. Besides, the “Lateral flow test result” value in test [2] (setting [5]) is “negative”.
Take `CN[C@H](C)[C@@H](O)c1ccccc1` [(+)-ephedrine]: in test [1] (compound at 10,000 ng/ml), the “% Cross-reactivity” value is 0.08%. Besides, in test [1] (setting [4]), the “Concentration determined by ELISA” value amounted to 8.37 ng/mL. Moreover, the “Lateral flow test result” value in test [2] (setting [5]) is reported as “negative”.
Regarding `CN[C@@H](C)[C@H](O)c1ccccc1` [(−)-ephedrine], in test [1] (compound at 10,000 ng/ml), the “% Cross-reactivity” value was 0.05%. For the same compound, in test [1] (setting [4]), the “Concentration determined by ELISA” value was 5.05 ng/mL. In test [2] (setting [5]), the “Lateral flow test result” value is on record as “negative”.
Take `CN(C)CCC(c1ccc(Cl)cc1)c1ccccn1` (stereo not drawn) [Chlorpheniramine]: the “Lateral flow test result” value in test [2] (setting [5]) is “negative”.
On to `CCNC(C)Cc1cccc(C(F)(F)F)c1` (stereo not drawn) [Fenfluramine], for which the “Lateral flow test result” value in test [2] (setting [5]) is reported as “negative”.
For the compound `CNC1(c2ccccc2Cl)CCCCC1=O` (stereo not drawn) [Ketamine], in test [2] (setting [5]), the “Lateral flow test result” value was “negative”.
Consider `CC(N)Cc1ccc2c(c1)OCO2` (stereo not drawn) [MDA, 3,4-methylenedioxyamphetamine], for which the “% Cross-reactivity” value in test [1] (compound at 10,000 ng/ml) worked out at 0.219%. Besides, the “Concentration determined by ELISA” value in test [1] (setting [4]) stood at 21.94 ng/mL. For the same compound, the “Lateral flow test result” value in test [2] (setting [5]) is “negative”.
For `CNC(C)Cc1ccc2c(c1)OCO2` (stereo not drawn) [MDMA (Ecstasy), 3,4-methylenedioxymethamphetamine], the “% Cross-reactivity” value was 55.0% in test [1] (compound at 15 ng/ml), 48.1% in test [1] (compound at 50 ng/ml) and 53.19% in test [1] (compound at 100 ng/ml). In addition, the “Concentration determined by ELISA” value came out at 8.26 ng/mL in test [1] (compound at 15 ng/ml), 24.09 ng/mL in test [1] (compound at 50 ng/ml) and 53.19 ng/mL in test [1] (compound at 100 ng/ml). The “Detection by the competitive ELISA (in words)” value in test [1] was “well detected”. Besides, the “Lateral flow test result (in words)” value in test [2] is reported as “picked up”. In test [2] (compound at 30 ng/ml in spiked saliva), the “Lateral flow test result” value is “positive”.
For the compound `CN(C)CCC(c1ccccc1)c1ccccn1` (stereo not drawn) [Pheniramine], the “Lateral flow test result” value in test [2] (setting [5]) was “negative”.
Take `NCCc1ccccc1` [beta-phenylethylamine]: the “% Cross-reactivity” value in test [1] (compound at 10,000 ng/ml) stood at 0.25%. In addition, in test [1] (setting [4]), the “Concentration determined by ELISA” value worked out at 25.6 ng/mL. Also, the “Lateral flow test result” value in test [2] (setting [5]) is “negative”.
In the case of `CC(C)(N)Cc1ccccc1` [phentermine], in test [1] (compound at 50,000 ng/ml), the “% Cross-reactivity” value is reported as 0.009% and the “Concentration determined by ELISA” value stood at 4.67 ng/mL.
For the compound `CC(N)C(O)c1ccccc1` (stereo not drawn) [phenylpropanolamine], the “% Cross-reactivity” value in test [1] (compound at 10,000 ng/ml) came out at 0.06%. For the same compound, the “Concentration determined by ELISA” value in test [1] (setting [4]) worked out at 5.8 ng/mL. For the same compound, the “Lateral flow test result” value in test [2] (setting [5]) is recorded as “negative”.
Taken in the same sequence, the figures for `NCCc1ccc(O)cc1` [tyramine, 4-hydroxy-phenethylamine] were 0.03%, 3.72 ng/mL and “negative”.
With “(+)-methamphetamine [(+)- methylamphetamine]”, the “Lateral flow test result (in words)” value in test [2] is reported as “picked up”. In test [2] (setting [3]), the “Lateral flow test result” value was “positive”.
With (+)-pseudoephedrine, in test [1] (compound at 10,000 ng/ml), the “% Cross-reactivity” value is on record as 0.063%. Also, in test [1] (setting [4]), the “Concentration determined by ELISA” value was 6.3 ng/mL. Moreover, the “Lateral flow test result” value in test [2] (setting [5]) is given as “negative”.
Taken in the same sequence, the figures for (−)-pseudoephedrine were 0.048%, 4.84 ng/mL and “negative”.
